Reference: ChEMBL document CHEMBL1201862, “PubChem BioAssay data set” (2004)
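Growth conditions: 96-well plates. Treatment: test compound, 48 hours, 5 concentrations. Analysis: linear interpolation between bracketing concentrations; unreached endpoints set to highest concentration. The concentration for 50% growth inhibition is given as GI50.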 Activity calls are given as the source filed them. Rule as the data show it: active = GI50 up to about 1.1 µM and inactive = higher.

Experiments:
Assay in all cases: growth of human tumour cells (NCI), 48 h
HOP-62 = system: HOP-62
UACC-62 = system: UACC-62
NCI-H226 = system: NCI-H226
KM12 = system: KM12
A498 = system: A498
COLO 205 = system: COLO 205
SK-OV-3 = system: SK-OV-3
DMS-114 = system: DMS-114
SF-268 = system: SF-268
HCT-15 = system: HCT-15
786-0 = system: 786-0
LOX IMVI = system: LOX IMVI
M14 = system: M14
ACHN = system: ACHN
HOP-92 = system: HOP-92
NCI-H23 = system: NCI-H23
T47D = system: T47D
NCI-H522 = system: NCI-H522
Malme-3M = system: Malme-3M
A549 = system: A549

SMILES | GI50 (HOP-62) | GI50 (UACC-62) | GI50 (NCI-H226) | GI50 (KM12) | GI50 (A498) | GI50 (COLO 205) | GI50 (SK-OV-3) | GI50 (DMS-114) | GI50 (SF-268) | GI50 (HCT-15) [µM] | GI50 (786-0) | GI50 (LOX IMVI) | GI50 (M14) | GI50 (ACHN) | GI50 (HOP-92) | GI50 (NCI-H23) | GI50 (T47D) | GI50 (NCI-H522) | GI50 (Malme-3M) | GI50 (A549)
CCN(CC)C(=S)SC1CCOP(=O)(N(CCCl)CCCl)N1C (configuration not stated) | > 95.1 µM (inactive) | 1.83 µM (inactive) | 48.3 µM (inactive) | 7.19 µM (inactive) | 44.9 µM (inactive) | 0.553 µM (active) | > 80.2 µM (inactive) | 0.19 µM (active) | > 50.7 µM (inactive) | 28.2 | 41.2 µM (inactive) | 1.41 µM (inactive) | > 39.7 µM (inactive) | 38.9 µM (inactive) | 28.2 µM (inactive) | > 100 µM (inactive) | 61.7 µM (inactive) | 0.43 µM (active) | 27.5 µM (inactive) | 
Cc1cc(NC(=O)NC(=O)c2ccccc2NC(=O)C(C)N)ccc1Oc1ncc(Br)cn1 (configuration not stated) | 0.0306 µM (active) | 0.0693 µM (active) | 0.0703 µM (active) | 0.169 µM (active) | 0.025 µM (active) | 0.0719 µM (active) | 0.0178 µM (active) | 1.13 µM (inactive) | 0.408 µM (active) | 0.31 | 0.0559 µM (active) | 0.173 µM (active) | 0.13 µM (active) | 1.22 µM (inactive) | 1.92 µM (inactive) | 0.172 µM (active) | 15.1 µM (inactive) | 0.0301 µM (active) | 0.188 µM (active) | 0.153 µM (active)
Nc1ccc2c(SCc3ccc([N+](=O)[O-])cc3)c3ccccc3nc2c1 | 21.8 µM (inactive) | 16.3 µM (inactive) | 18.7 µM (inactive) | 12.5 µM (inactive) | 22.5 µM (inactive) | 2.28 µM (inactive) | 20.5 µM (inactive) | 15 µM (inactive) | 15.2 µM (inactive) | 13.5 | 7.52 µM (inactive) | 6.84 µM (inactive) | 11.4 µM (inactive) | 5 µM (inactive) | 15.2 µM (inactive) | 17 µM (inactive) | 8.02 µM (inactive) | 3.47 µM (inactive) | 13.5 µM (inactive) | 21.6 µM (inactive)
C/C=C(\N=C=S)C(=O)OC1C(COC(C)=O)OC([C@]2(O)CC(=O)C(N)=C(C(=O)O)C2=O)C(O)C1OC1CC(OC)C(O)([C@@H](C)OC(=O)[C@@H](C)CC)C(C)O1 (some centres not stated) | 22.1 µM (inactive) | 5.31 µM (inactive) | 19.4 µM (inactive) | 7.94 µM (inactive) | 35 µM (inactive) | 4.71 µM (inactive) | 21.5 µM (inactive) | 6.68 µM (inactive) | 9.57 µM (inactive) | 16 | 12.3 µM (inactive) | 6.34 µM (inactive) | 16 µM (inactive) | 18.3 µM (inactive) | 3.45 µM (inactive) | 9.84 µM (inactive) | 11.2 µM (inactive) | 2.17 µM (inactive) | 9.57 µM (inactive) | 33.7 µM (inactive)
CC1=Nn2c(nnc2-c2ccc(Cl)cc2)NC(C)(C)C1 | > 100 µM (inactive) | > 100 µM (inactive) | > 100 µM (inactive) | > 100 µM (inactive) | > 100 µM (inactive) | > 100 µM (inactive) | > 100 µM (inactive) | > 100 µM (inactive) | > 100 µM (inactive) | > 100 | > 100 µM (inactive) | > 100 µM (inactive) | > 100 µM (inactive) | > 100 µM (inactive) | > 100 µM (inactive) | > 100 µM (inactive) |  | > 100 µM (inactive) | > 100 µM (inactive) | > 100 µM (inactive)
[O-][n+]1c(-c2ccccc2)oc2ccccc21 | 20.4 µM (inactive) | 8.69 µM (inactive) | 30.8 µM (inactive) | 17.3 µM (inactive) | 17.9 µM (inactive) | 18.6 µM (inactive) | > 67.5 µM (inactive) | 3.48 µM (inactive) | 26.9 µM (inactive) | 6.12 | 22.6 µM (inactive) | 3.07 µM (inactive) | 11 µM (inactive) | 15 µM (inactive) | > 100 µM (inactive) | 11.3 µM (inactive) |  | 12 µM (inactive) | 13 µM (inactive) | 4.6 µM (inactive)
